According to publication PMC8344021, “Discovery of Small Molecule Bak Activator for Lung Cancer Therapy” (Theranostics, 2021):

Experiments:
Bak-/- A549 xenografts = test: Bak-/- A549 xenografts, tumor growth; format: in vivo, Nu/Nu nude mice; conditions: 12.5mg/kg/d i.p., 28 days
Protocol: Six-week-old female Nu/Nu nude mice were purchased from Envigo (Indianapolis, IN) and housed under pathogen-free conditions in microisolator cages. The animal propagation protocol was approved by the Emory Institutional Animal Care and Use Committee (IACUC) and the Emory Animal Ethics Committee. 3×10^6 lung cancer cells were injected into subcutaneous tissue in the flank region of nude mice. The tumors were allowed to grow to an average volume of 150~200 mm^3 prior to initiation of therapy as previously described, [29]. Patient-derived xenografts (PDXs, TKO-002 and TKO-005) were established as part of an IRB-approved phase II co-clinical trial of arsenic trioxide in patients with relapsed SCLC who had failed standard platinum-based chemotherapy. Tumor samples were obtained by image-guided biopsy and were directly implanted into Nu/Nu nude mice without intervening propagation in plastic culture plates. Direct serial propagation of growing tumor occurred for up to 5 generations. The animal propagation protocol was approved by the Emory IACUC and the Emory Animal Ethics Committee. Mice with SCLC and NSCLC xenografts or PDXs were treated with BKA-073 intraperitoneally (i.p.) or venetoclax orally as indicated. During treatment, tumor volume (V) was measured by caliper measurements once every two days as described previously. Mice were euthanized by CO2 inhalation at the end of treatment. […]

[1] = tested on: H1299, H460 and A549 cells; test: Sulforhodamine B (SRB) cytotoxicity screening; format: cell-based, human; conditions: SRB assay
From the text: The BH3 death domain is known to be required for the proapoptotic function of Bak. We chose the BH3 domain binding pocket (aa75-88) of Bak (PDB ID: 2YV6) as a docking site for screening of small molecules using the UCSF DOCK 6.1 program suite and the NCI chemical library (300,000 small molecule) database as we recently described, [20], [29], [34]. Small molecules were ranked according to their energy scores. The top 500 compounds determined to have the highest affinity for the BH3 domain were obtained from the NCI and tested for cytotoxicity in human lung cancer cells (i.e. H1299, H460 and A549 cells) by sulforhodamine B (SRB) assay for further screening as described, [36]. […] We named this lead compound Bak activator BKA-073 (C19H24ClN3O2, MW: 361.87) (Figure 1A). To test the effect of BKA-073 on mitochondrial priming (∆% priming) and apoptotic cell death, human lung cancer A549 cells were treated with increasing concentrations (0, 0.25, 0.5, 0.75, 1.0 µM) of BKA-073, followed by analysis of dynamic BH3 profiling (DBP) at 16h and apoptotic cell death at 72h as described, [37]. […] In addition to lung cancer cell lines, we evaluated the efficacy of BKA-073 in other types of cancer cell lines, including breast cancer (MDA-MB-231 and MCF7), colon cancer (HCT-116), lymphoma (Ramos), multiple myeloma (OPM-1), pancreatic cancer (PANC-1) and osteosarcoma (U2OS) cell lines. […]

Structure (SMILES): COc1ccc2nc3ccccc3c(NCCNCC(C)O)c2c1 (centres unmarked) [BKA-073]
- tumor growth (Bak-/- A549 xenografts): no inhibitory effect
- cytotoxicity among top 500 docking hits [1]: most potent activity
